Values after ≈ are worked out from the molar mass of the structure shown. Like-named read-outs stand apart in the source and are kept apart here.
Columns and labels:
Clostridium difficile = test: In vitro MIC, standard microtiter assay; format: cell-based; settings: Clostridioides difficile; Table A; read-out: MIC
From the text: (§1) In vitro minimum inhibitory concentrations (MIC) of the AAD-609 complex and of Factors A, B, CC2 and D, using standard microtiter assay procedures, against a number of microorganisms are reported in Table A, which follows.

Escherichia coli 12140 = test: In vitro MIC, standard microtiter assay; format: cell-based; settings: Escherichia coli, 12140; Table A; read-out: MIC
From the text: as §1

S. epidermidis 2265 = test: In vitro MIC, standard microtiter assay; format: cell-based; settings: Staphylococcus epidermidis, 2265; Table A; read-out: MIC
From the text: as §1

S. epidermidis 2479 = test: In vitro MIC, standard microtiter assay; format: cell-based
From the text: as §1

S. epidermidis 2683 = test: In vitro MIC, standard microtiter assay; format: cell-based; settings: Staphylococcus epidermidis, 2683; Table A; read-out: MIC
From the text: as §1

[1] = test system: S. epidermidis 651 (methicillin resistant strain); test: In vitro MIC, standard microtiter assay; format: cell-based; settings: methicillin resistant strain
From the text: as §1

[2] = test system: Salmonella gallinarum BC-595; test: In vitro MIC, standard microtiter assay; format: cell-based; settings: Salmonella enterica, GALLINARUM; Table A; read-out: MIC
From the text: as §1

[3] = test system: Staphylococcus aureus HH127; test: In vitro MIC, standard microtiter assay; format: cell-based
From the text: as §1

[4] = test system: Streptococcus faecalis 657; test: In vitro MIC, standard microtiter assay; format: cell-based; settings: Enterococcus faecalis, 657; Table A; read-out: MIC
From the text: as §1

S. aureus 209P = test: In vitro MIC, standard microtiter assay; format: cell-based, Staphylococcus aureus; settings: Staphylococcus aureus, 209P; Table A; read-out: MIC
From the text: as §1

S. aureus 674 = test: In vitro MIC, standard microtiter assay; format: cell-based, Staphylococcus aureus; settings: Staphylococcus aureus, 674; Table A; read-out: MIC
From the text: as §1

S. aureus 675 = test: In vitro MIC, standard microtiter assay; format: cell-based, Staphylococcus aureus; settings: Staphylococcus aureus, 675; Table A; read-out: MIC
From the text: as §1

[5] = test system: S. aureus 910 (methicillin resistant strain); test: In vitro MIC, standard microtiter assay; format: cell-based, Staphylococcus aureus; settings: Staphylococcus aureus; Table A; methicillin resistant strain; read-out: MIC
From the text: as §1

S. faecalis 34358 = test: In vitro MIC, standard microtiter assay; format: cell-based, Streptococcus faecalis
From the text: as §1

[6] = test system: S. aureus 2620 (methicillin resistant strain); test: MIC; format: cell-based; settings: Staphylococcus aureus; Table B; methicillin resistant strain; read-out: MIC
From the text: as §1

[7] = 30:70 acetonitrile:water
SK&F-AAD-609 = test: Susceptibility of SK&F-AAD-609 to antibiotics (diffusion method, BBL susceptibility disks); format: cell-based, Kibdelosporangium aridum subsp. largum; settings: 28° C., one week; for Susceptibility (diffusion method): disk 10 μg
Experimental: Susceptibility of SK&F-AAD-609 to antibiotics was examined by placing BBL susceptibility disks on nutrient agar plates seeded with SK&F-ADD-609 as an agar overlay. Plates were placed at 4° C. for one hour to permit diffusion of the anitbiotics and, subsequently, incubated at 28° C. Diameters of the zones of inhibition were measured after incubation for one week.
Susceptibility to Antibiotics. […] Chlortetracycline (5 μg) produced 17-18 mm zones of inhibition; tetracycline (5 μg) 9-12 mm zones; rifampin (5 μg) 10-12 mm zones; novobiocin (5 μg) 30-35 mm zones. All zones of inhibition contained at least a few resistant colonies.

[8] = test system: mixed intestinal microflora (cecum fluid); test: Swine in vitro model; settings: one level, up to 166.67 ppm; 4-5 h
Experimental: A swine in vitro model was used to characterize AAD-609 antibiotics as potential feed additives in swine and poultry. Mixed intestinal microflora were obtained from ileally-cannulated pigs. Virginiamycin, carbadox, AAD-216 and its components, and AAD-609 Complex (containing less than 5% AAD-216 antibiotics) were tested at one level. […] Glucose (GLU) was spared from microbial degradation. Volatile fatty acids (TOTAL) were the major end-product of microbial metabolism while lactic acid production were reduced. […] Since AAD-609 and AAD-216 give similar in vitro results, it is expected that AAD-609 has similar growth-promoting activity in monogastric animals. Also, the in vitro activity of AAD-609 is similar to the activity previously observed with bacitracin in this model.
The swine in vitro model was carried out by incubating 1.5 ml of cecum fluid, from a swine fed normal rations, mixed with 1.5 ml of a nutrient broth (3 mg casein hydrolysate, 30 mg maltose, 1.25 mg urea, 0.5 mg lysine, and 30 mg cellobiose) and with up to 166.67 parts per million of a selected growth promotant at 39° C., with oscillation, for about 4-5 hours. Results, percentage of control, are reported in the following table in which all abbreviations are as above except that LLA means L-lactate and ETOH means ethanol.

[9] = test system: Hubbard cross day-old chicks; test: Growth of chicks; format: in vivo; settings: 8 reps
Experimental: The effects of virginiamycin, AAD-609 Complex (containing less than 5% AAD-216 antibiotics) and AAD-216 Complex on growth of chicks were evaluated as follows. Hubbard cross day-old chicks were housed in wire-floored poultry caging. Eight chicks were included in each pen/rep. Weights and feed intakes were recorded on days 10 and 17. Results showing animal weight as a percentage of a control fed a normal rye-based ration and animal feed intake per unit weight gain as a percentage of animal feed intake (g) per unit weight gain (g) of the controls are reported in the following table.

Work on `CNC1C(=O)NC2C(=O)NC(C(=O)NC3C(=O)NC4C(=O)NC(C(=O)NC(C(=O)O)c5cc(O)cc(OC6OC(CO)C(O)C(O)C6O)c5-c5cc4ccc5O)C(O)c4cc(Cl)c(c(Cl)c4)Oc4cc3cc(c4OC3OC(CO)C(O)C(O)C3NC(=O)CCCCCCCC(C)C)Oc3ccc(cc3Cl)C2O)c2cc(cc(O)c2Cl)Oc2cc1ccc2O` (stereo not drawn) [AAD-609 B] yielded an MIC (Clostridium difficile) of 0.5 µg/mL (≈ 0.279 µM), an MIC (Escherichia coli 12140) of over 100 µg/mL and an MIC (S. epidermidis 2265) of 25 µg/mL (≈ 14 µM). For the same compound, the MIC (S. epidermidis 2479; Staphylococcus epidermidis, 2479, Table A, read-out: MIC) was 12.5 µg/mL (≈ 6.99 µM), the MIC (S. epidermidis 2479; Table B) was 12.5 µg/mL (≈ 6.99 µM) and the MIC (S. epidermidis 2683) was 25 µg/mL (≈ 14 µM). The MIC ([1]; Staphylococcus epidermidis, Table A, read-out: MIC) was 50 µg/mL (≈ 27.9 µM), the MIC ([1]; Table B) was 50 µg/mL (≈ 27.9 µM) and the MIC [2] was over 100 µg/mL. For the same compound, the MIC ([3]; Staphylococcus aureus, HH127, Table A, read-out: MIC) was 1.6 µg/mL (≈ 0.894 µM), the MIC ([3]; Table B) was 1.6 µg/mL (≈ 0.894 µM) and the MIC [4] was 0.2 µg/mL (≈ 0.112 µM). The MIC (S. aureus 209P) was 0.8 µg/mL (≈ 0.447 µM), the MIC (S. aureus 674) was 0.8 µg/mL (≈ 0.447 µM) and the MIC (S. aureus 675) was 6.3 µg/mL (≈ 3.52 µM). For the same compound, the MIC [5] was 1.6 µg/mL (≈ 0.894 µM), the MIC (S. faecalis 34358; Enterococcus faecalis, 34358, Table A, read-out: MIC) was 0.2 µg/mL (≈ 0.112 µM) and the MIC (S. faecalis 34358; Table B) was 0.2 µg/mL (≈ 0.112 µM). The MIC [6] was 2 µg/mL (≈ 1.12 µM), the “pKa (A) carboxyl on aglycone” value [7] was 3.5 and the “pKa (C) amino group on aglycone” value [7] was 7.1.
With `CN(C)[C@@H]1C(=O)C(C(N)=O)=C(O)[C@@]2(O)C(=O)C3=C(O)c4c(O)cccc4[C@@](C)(O)[C@H]3C[C@@H]12` [tetracycline] the “Zone of inhibition (diameter)” value (SK&F-AAD-609; disk 5 μg) was 9-12 mm.
With `NC[C@H]1O[C@H](O[C@H]2[C@H](O)[C@@H](O[C@H]3O[C@H](CO)[C@@H](O)[C@H](N)[C@H]3O)[C@H](N)C[C@@H]2N)[C@H](N)C[C@@H]1O` [tobramycin] the “Susceptibility (diffusion method)” value (SK&F-AAD-609) was “resistant”.
For gentamicin, the “Susceptibility (diffusion method)” value (SK&F-AAD-609) was “resistant”.
In the case of virginiamycin, the “% PR (percent propionate)” value [8] is reported as 69 % of control, the “ACE (acetate)” value [8] is reported as 53 % of control and the “BUT (butyrate)” value [8] is reported as 153 % of control. The “ETOH (ethanol)” value [8] was 25 % of control, the “GLU (glucose)” value [8] was 180 % of control and the “IBU (isobutyrate)” value [8] was 0 % of control. For the same compound, the “IVA (isovalerate)” value [8] was 0 % of control, the “LLA (L-lactate)” value [8] was 4 % of control and the “LYS (lysine)” value [8] was 94 % of control. For the same compound, the “PRO (propionate)” value [8] was 44 % of control, the “TOTAL (total volatile fatty acids)” value [8] was 63 % of control and the VAL [8] was 0 % of control. The “Feed/gain, days 3-10” value ([9]; 10.0 ppm in feed) was 99.8 % of control, the “Feed/gain, days 3-17” value ([9]; 10.0 ppm in feed) was 97.5 % of control and the “Feed/gain, days 10-17” value ([9]; 10.0 ppm in feed) was 96.6 % of control. The Mortality ([9]; 10.0 ppm in feed) was 4, the “Weight, day 10” value ([9]; 10.0 ppm in feed) was 100.3 % of control and the “Weight, day 17” value ([9]; 10.0 ppm in feed) was 101.8 % of control. For the same compound, the “Feed/gain, days 3-10” value ([9]; 50.0 ppm in feed) was 92.8 % of control, the “Feed/gain, days 3-17” value ([9]; 50.0 ppm in feed) was 83.2 % of control and the “Feed/gain, days 10-17” value ([9]; 50.0 ppm in feed) was 74.3 % of control. The Mortality ([9]; 50.0 ppm in feed) was 2, the “Weight, day 10” value ([9]; 50.0 ppm in feed) was 101.5 % of control and the “Weight, day 17” value ([9]; 50.0 ppm in feed) was 120.2 % of control.

— patent US4694069A, “Kibdelosporangium aridum SK&F-AAD-609” (SmithKline Beckman Corporation, priority 1985, dated 1987)
